Measurements: patent publication US20240246916A1, “7-NITRO-8-HYDROXYQUINOLINE DERIVATIVES, PREPARATION METHOD THEREFORE AND MEDICAL USE THEREOF” (Jiangsu Yahong Meditech Co., Ltd., priority 2021, published 2024)
In brackets after ≈: the same amount, converted by molar mass.

Key:
Assay type in all cases: cell-based
[1] = test system: Prostate cancer cell line LNcaP; assay: Inhibitory activity on cancer cells, CellTiter-Glo viability, LNcaP; conditions: Homo sapiens, 72 hours treatment
Method: (§1) HUVEC (purchased from Allcells Biological Technology (Shanghai) Co., Ltd.); UM-UC-3 (ATCC); LNCaP (ATCC); RM-1 (purchased from Nanjing Cobioer Biosciences Co., Ltd.) (1) On the first day, the cells were seeded in a 96-well plate, and the previous medium was poured off. 5 mL of DPBS was added to wash the cells, and then removed by a pipette and discarded. Then, 1 mL of trypsin (0.25%) was added, and the plate was placed in a cell culture incubator at 37 °C, 5% CO2 for digestion, and taken out after about 2 to 5 minutes. New corresponding medium was added, and pipetted to resuspend the cells evenly, and the cells were then counted with an automated cell counter. Regarding HUVEC, the medium used was endothelial cell complete medium; regarding UM-UC-3, the medium used was 89 v % EMEM+10 v % fetal bovine serum+1 v % penicillin-streptomycin double anti-body; regarding LNcaP, the medium used was 89 v % RPM11640+10 v % fetal bovine serum+1 v % penicillin-streptomycin double anti-body; and regarding RM1, the medium used was 89 v % DMEM+10 v % fetal bovine serum+1 v % penicillin-streptomycin double anti-body. (2) HUVEC cells were seeded in columns 1 to 11 of a 96-well plate (Corning, Cat. No. 3610) at a density of 2000 cells per well in 100 μL of medium, and the medium free of cell was added to the wells of column 12. The other three types of cells were also seeded, wherein UM-UC-3 and RM-1 cells were seeded at a density of 3000 cells per well, and LNCap cells were seeded at a density of 5000 cells per well. Then, the plate was placed in an incubator at 37° C., 5% CO2 for 24 hours. (3) On the second day, the compounds of the present invention and the reference drug nitroxoline (obtained according to the preparation method disclosed in the prior art) were diluted in gradient (2.5 folds, started at 100 μmol) to obtain 8 dose points (there were a total of 8 columns of wells; the first column of wells had the highest concentration, the concentration decreased in turn, and the last column of wells had the lowest concentration). 10 μL of the compound diluted in gradient was added to the 100 μL of cells in column 1 to column 10 with an 8-channel pipette. 10 μL of the corresponding medium containing 0.33 v % DMSO was added to column 11 and column 12. The plate was incubated in an incubator at 37° C., 5% CO2 for 72 hours (note: column 11 was used as MAX well with cells and no compounds; and column 12 was used as MIN well with no cells and no compounds). (4) After treating with the compounds of the present invention for 72 hours, the cell viability detection reagents in the above CellTiter-Glo® assay kit were added to the 96-well plate at 50 μL per well according to the instructions. The plate was shaken on a shaker in the dark for 5 to 10 minutes, and then the cell activity was determined by a multifunctional microplate reader. Finally, the growth inhibition of the compounds of the present invention on the cells was plotted by XLFIT 5.3 software, and the IC50 values of the compounds of the present invention were calculated.

[2] = test system: Mouse prostate cancer cell line RM1; assay: Inhibitory activity on cancer cells, CellTiter-Glo viability, RM1; conditions: 72 hours treatment
Method: as §1

[3] = test system: Staphylococcus aureus (methicillin-resistant and sensitive clinical isolates; ATCC29213); assay: MIC by micro broth dilution (CLSI), Staphylococcus aureus; conditions: for MIC50 / MIC90: Clinical strain; for MIC50: read-out: MIC50; for MIC90: read-out: MIC90; for MIC: Standard strain ATCC29213, read-out: MIC
How it was run: (§2)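 Compounds were dissolved in DMSO and tested at 128 to 0.06 mg/L in cation-adjusted Mueller-Hinton broth. Overnight cultures were set to 0.5 McFarland, diluted 100-fold to a final 10^5 CFU/mL, and incubated at 35±2° C for 20 hours in air. Results were interpreted by CLSI 2019 M100 criteria.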

[4] = test system: Bladder cancer cell line UM-UC-3; assay: Inhibitory activity on cancer cells, CellTiter-Glo viability, UM-UC-3; conditions: Homo sapiens, UMUC3, 72 hours treatment
Method: as §1

[5] = test system: Acinetobacter baumannii (carbapenem-resistant clinical isolates; ATCC19606); assay: MIC by micro broth dilution (CLSI), Acinetobacter baumannii; conditions: for MIC50 / MIC90: ATCC19606, Clinical strain; for MIC50 / MIC90 / MIC: Acinetobacter baumannii; for MIC50: read-out: MIC50; for MIC90: read-out: MIC90; for MIC: Standard strain ATCC19606, read-out: MIC
How it was run: as §2

[6] = test system: Escherichia coli (carbapenem-resistant clinical isolate; ATCC25922); assay: MIC by micro broth dilution (CLSI), Escherichia coli; conditions: for MIC50 / MIC90: ATCC25922, Clinical strain; for MIC50 / MIC90 / MIC: Escherichia coli; for MIC50: read-out: MIC50; for MIC90: read-out: MIC90; for MIC: Standard strain ATCC25922, read-out: MIC
How it was run: as §2

[7] = test system: Endothelial cell line HUVEC; assay: Inhibitory activity on cells, CellTiter-Glo viability, HUVEC; conditions: Homo sapiens, 72 hours treatment
Method: as §1

Row | SMILES | IC50 [1] | IC50 [2] | MIC50 [3] | MIC90 [3] | MIC [3] | IC50 [4] | MIC50 [5] | MIC90 [5] | MIC [5] | MIC50 [6] | MIC90 [6] | MIC [6] | IC50 [7] | inhibitory effect against Acinetobacter baumannii compared with the reference drug nitroxoline ([5]; MIC comparison) | inhibitory effect against Escherichia coli compared with the reference drug nitroxoline ([6]; MIC comparison)
1 | COc1ccnc2c(O)c([N+](=O)[O-])ccc12 [Example 21, 4-Methoxy-7-nitroquinolin-8-ol] | 6.75 µM | 6.8 µM | 4 mg/L (≈ 18.2 µM) | 8 mg/L (≈ 36.3 µM) | 8 mg/L (≈ 36.3 µM) | 4.84 µM | 32 mg/L (≈ 145 µM) | 64 mg/L (≈ 291 µM) | 32 mg/L (≈ 145 µM) | 8 mg/L (≈ 36.3 µM) | 32 mg/L (≈ 145 µM) | 8 mg/L (≈ 36.3 µM) | 10.3 µM |  | 
2 | O=[N+]([O-])c1ccc2c(-c3ccccc3)ccnc2c1O [Example 22, 4-Phenyl-7-nitroquinolin-8-ol] | 2.31 µM | 2.3 µM | 2 mg/L (≈ 7.51 µM) | 32 mg/L (≈ 120 µM) | 2 mg/L (≈ 7.51 µM) | 1.99 µM | 128 mg/L (≈ 481 µM) | > 128 mg/L | 128 mg/L (≈ 481 µM) | 128 mg/L (≈ 481 µM) | 128 mg/L (≈ 481 µM) | > 128 mg/L | 1.46 µM |  | 
3 | CN(C)CCOc1ccnc2c(O)c([N+](=O)[O-])ccc12 [Example 24, 4-(2-(Dimethylamino)ethoxy)-7-nitroquinolin-8-ol] | 49.6 µM | 53.6 µM | 128 mg/L (≈ 462 µM) | 128 mg/L (≈ 462 µM) | 128 mg/L (≈ 462 µM) | 48 µM | 128 mg/L (≈ 462 µM) | > 128 mg/L | 128 mg/L (≈ 462 µM) | 128 mg/L (≈ 462 µM) | 128 mg/L (≈ 462 µM) | 128 mg/L (≈ 462 µM) | > 100 µM |  | 
4 | CN(C)C(=O)N1CCN(c2ccnc3c(O)c([N+](=O)[O-])ccc23)CC1 [Example 25, 4-(8-Hydroxy-7-nitroquinolin-4-yl)-N,N-dimethylpiperazine-1-carboxamide] | 32.4 µM | 47.2 µM | 16 mg/L (≈ 46.3 µM) | 16 mg/L (≈ 46.3 µM) | > 128 mg/L | 44.5 µM | 128 mg/L (≈ 371 µM) | > 128 mg/L | > 128 mg/L | 128 mg/L (≈ 371 µM) | > 128 mg/L | 32 mg/L (≈ 92.7 µM) | 47.6 µM |  | 
5 | COC(=O)N1CCN(c2ccnc3c(O)c([N+](=O)[O-])ccc23)CC1 [Example 26] | 11.9 µM | 12.5 µM | 16 mg/L (≈ 48.1 µM) | 64 mg/L (≈ 193 µM) | 128 mg/L (≈ 385 µM) | 11.4 µM | 64 mg/L (≈ 193 µM) | > 128 mg/L | > 128 mg/L | > 128 mg/L | > 128 mg/L | 128 mg/L (≈ 385 µM) | 15.1 µM |  | 
6 | O=[N+]([O-])c1ccc2c(F)ccnc2c1O [Example 27, 4-Fluoro-7-nitroquinolin-8-ol] | 11.9 µM | 13.2 µM | 64 mg/L (≈ 307 µM) | 64 mg/L (≈ 307 µM) | 64 mg/L (≈ 307 µM) | 4.11 µM | > 128 mg/L | > 128 mg/L | > 128 mg/L | 128 mg/L (≈ 615 µM) | > 128 mg/L | 64 mg/L (≈ 307 µM) | 3.17 µM |  | 
7 | COC(=O)[C@@H]1CCCN1c1ccnc2c(O)c([N+](=O)[O-])ccc12 [Example 28, Methyl (8-hydroxy-7-nitroquinolin-4-yl)-L-prolinate] | 33 µM | 17 µM | 32 mg/L (≈ 101 µM) | 32 mg/L (≈ 101 µM) | > 128 mg/L | 42.3 µM | 64 mg/L (≈ 202 µM) | > 128 mg/L | > 128 mg/L | > 128 mg/L | > 128 mg/L | > 128 mg/L | 17.3 µM |  | 
8 | O=[N+]([O-])c1cc(Cl)c2c(Cl)ccnc2c1O [Example 29, 4,5-dichloro-7-nitroquinolin-8-ol] | 7.03 µM | 6.5 µM | 0.5 mg/L (≈ 1.93 µM) | 1 mg/L (≈ 3.86 µM) | 1 mg/L (≈ 3.86 µM) | 9.11 µM | 2 mg/L (≈ 7.72 µM) | 4 mg/L (≈ 15.4 µM) | 2 mg/L (≈ 7.72 µM) | 4 mg/L (≈ 15.4 µM) | 8 mg/L (≈ 30.9 µM) | 4 mg/L (≈ 15.4 µM) | 6.22 µM | comparable to that of the reference drug nitroxoline | comparable to that of the reference drug nitroxoline
9 | O=[N+]([O-])c1cc(Cl)c2c(OC3CCCCC3)ccnc2c1O [Example 60, 5-Chloro-4-(cyclohexyloxy)-7-nitroquinolin-8-ol] | 0.64 µM | 1.13 µM |  |  |  | 5.82 µM |  |  |  |  |  |  | 0.7 µM |  | 
10 | O=[N+]([O-])c1cc(Cl)c2c(N3CCC4(CC3)CC4)ccnc2c1O [Example 63, 5-Chloro-7-nitro-4-(6-azaspiro[2.5]octan-6-yl)quinolin-8-ol] | 2.01 µM | 7.47 µM |  |  |  | 7.07 µM |  |  |  |  |  |  | 1.82 µM |  | 
11 | O=[N+]([O-])c1cc(Cl)c2c(F)ccnc2c1O [Example 65, 5-Chloro-4-fluoro-7-nitroquinolin-8-ol] | 13.2 µM | 21.7 µM |  |  |  | 11.5 µM |  |  |  |  |  |  | 9.03 µM |  | 
12 | COc1c(C2CC2)cnc2c(O)c([N+](=O)[O-])ccc12 [Example 75, 3-cyclopropyl-4-methoxy-7-nitroquinolin-8-ol] | 1.77 µM | 2.05 µM |  |  |  | 9.27 µM |  |  |  |  |  |  | 3.41 µM |  | 
